Test results as given in patent US6444615B1, “Herbicidal imidazolidinetrione and thioxo-imidazolidinediones” (Dow AgroSciences LLC, priority 2000, dated 2002).

tested on: Hairy Beggarticks (Bidens pilosa); experiment: Herbicidal pre-emergence test, Hairy Beggarticks; format: in vivo; settings: 1200 g/ha, scale of 0-100, 0 no activity, 100 total control, about two or four weeks after application
Protocol: (§1) Listed below, a typical planting design for the test, consisting of four monocot weeds, four dicot weeds and one sedge weed. [table] For each compound, evaluation tests were carried out according to the following procedures: For preemergence tests, immediately after planting, the test compound was sprayed directly onto the soil surface. The flats or pots were placed in the greenhouse and then watered. For postemergence tests, seeds were allowed to germinate and grow for 10 to 21 days before application. The test plants were selected for uniformity, size and stage of development. The test plants were then treated with the test compound, returned to the greenhouse and watered. Untreated plants were used as a comparison. The compound to be evaluated was dissolved in an appropriate solvent, usually acetone, or a formulation of the evaluated compounds as described above, was added to the water, and sprayed over the flats or pots using a carrier volume equivalent to 187 or 468 liters per hectare to give a rate of application in grams per hectare (g/ha). About two or four weeks after application of the test compounds, the state of the plant was observed. Each species was evaluated on a scale of 0-100 in which 0 equals no activity and 100 equals total control.

| SMILES | Herbicidal Activity BID (pre-emergence) |
| --- | --- |
| CN1C(=O)C(=O)N(c2cc(OC3CCCC3)c(Cl)cc2F)C1=O [Compound 3] | 0 |
| C=CCOc1cc(N2C(=O)C(=O)N(CCCC)C2=O)c(F)cc1Cl [Compound 16] | 0 |

tested on: Hairy Beggarticks (Bidens pilosa); experiment: Herbicidal post-emergence test, Hairy Beggarticks; format: in vivo; settings: 1200 g/ha, scale of 0-100, 0 no activity, 100 total control, about two or four weeks after application
Protocol: as §1

| SMILES | Herbicidal Activity BID (post-emergence) |
| --- | --- |
| CN1C(=O)C(=O)N(c2cc(OC3CCCC3)c(Cl)cc2F)C1=O [Compound 3] | 80 |
| C=CCOc1cc(N2C(=O)C(=O)N(CCCC)C2=O)c(F)cc1Cl [Compound 16] | 95 |

tested on: Nightshade, (black) (Solanum nigrum); experiment: Herbicidal pre-emergence test, Nightshade (black); format: in vivo; settings: 1200 g/ha, scale of 0-100, 0 no activity, 100 total control, about two or four weeks after application
Protocol: as §1

| SMILES | Herbicidal Activity NS (pre-emergence) |
| --- | --- |
| CN1C(=O)C(=O)N(c2cc(OC3CCCC3)c(Cl)cc2F)C1=O [Compound 3] | 0 |
| C=CCOc1cc(N2C(=O)C(=O)N(CCCC)C2=O)c(F)cc1Cl [Compound 16] | 0 |

tested on: Nightshade, (black) (Solanum nigrum); experiment: Herbicidal post-emergence test, Nightshade (black); format: in vivo; settings: 1200 g/ha, scale of 0-100, 0 no activity, 100 total control, about two or four weeks after application
Protocol: as §1

| SMILES | Herbicidal Activity NS (post-emergence) |
| --- | --- |
| CN1C(=O)C(=O)N(c2cc(OC3CCCC3)c(Cl)cc2F)C1=O [Compound 3] | 80 |
| C=CCOc1cc(N2C(=O)C(=O)N(CCCC)C2=O)c(F)cc1Cl [Compound 16] | 100 |

tested on: Smartweed, (pale) (Polygonum lapathifolium); experiment: Herbicidal pre-emergence test, Smartweed (pale); format: in vivo; settings: 1200 g/ha, scale of 0-100, 0 no activity, 100 total control, about two or four weeks after application
Protocol: as §1

| SMILES | Herbicidal Activity SMT (pre-emergence) |
| --- | --- |
| CN1C(=O)C(=O)N(c2cc(OC3CCCC3)c(Cl)cc2F)C1=O [Compound 3] | 0 |
| C=CCOc1cc(N2C(=O)C(=O)N(CCCC)C2=O)c(F)cc1Cl [Compound 16] | 0 |

tested on: Smartweed, (pale) (Polygonum lapathifolium); experiment: Herbicidal post-emergence test, Smartweed (pale); format: in vivo; settings: 1200 g/ha, scale of 0-100, 0 no activity, 100 total control, about two or four weeks after application
Protocol: as §1

| SMILES | Herbicidal Activity SMT (post-emergence) |
| --- | --- |
| CN1C(=O)C(=O)N(c2cc(OC3CCCC3)c(Cl)cc2F)C1=O [Compound 3] | 85 |
| C=CCOc1cc(N2C(=O)C(=O)N(CCCC)C2=O)c(F)cc1Cl [Compound 16] | 80 |

tested on: Velvetleaf (Abutilon theophrasti); experiment: Herbicidal pre-emergence test, Velvetleaf; format: in vivo; settings: 1200 g/ha, scale of 0-100, 0 no activity, 100 total control, about two or four weeks after application
Protocol: as §1

| SMILES | Herbicidal Activity VEL (pre-emergence) |
| --- | --- |
| CN1C(=O)C(=O)N(c2cc(OC3CCCC3)c(Cl)cc2F)C1=O [Compound 3] | 0 |
| C=CCOc1cc(N2C(=O)C(=O)N(CCCC)C2=O)c(F)cc1Cl [Compound 16] | 0 |

tested on: Velvetleaf (Abutilon theophrasti); experiment: Herbicidal post-emergence test, Velvetleaf; format: in vivo; settings: 1200 g/ha, scale of 0-100, 0 no activity, 100 total control, about two or four weeks after application
Protocol: as §1

| SMILES | Herbicidal Activity VEL (post-emergence) |
| --- | --- |
| CN1C(=O)C(=O)N(c2cc(OC3CCCC3)c(Cl)cc2F)C1=O [Compound 3] | 100 |
| C=CCOc1cc(N2C(=O)C(=O)N(CCCC)C2=O)c(F)cc1Cl [Compound 16] | 100 |

tested on: Barnyardgrass (Echinochloa crusgalli); experiment: Herbicidal pre-emergence test, Barnyardgrass; format: in vivo; settings: 1200 g/ha, scale of 0-100, 0 no activity, 100 total control, about two or four weeks after application
Protocol: as §1

| SMILES | Herbicidal Activity BYG (pre-emergence) |
| --- | --- |
| CN1C(=O)C(=O)N(c2cc(OC3CCCC3)c(Cl)cc2F)C1=O [Compound 3] | 0 |
| C=CCOc1cc(N2C(=O)C(=O)N(CCCC)C2=O)c(F)cc1Cl [Compound 16] | 0/0 |

tested on: Barnyardgrass (Echinochloa crusgalli); experiment: Herbicidal post-emergence test, Barnyardgrass; format: in vivo; settings: 1200 g/ha, scale of 0-100, 0 no activity, 100 total control, about two or four weeks after application
Protocol: as §1

| SMILES | Herbicidal Activity BYG (post-emergence) |
| --- | --- |
| CN1C(=O)C(=O)N(c2cc(OC3CCCC3)c(Cl)cc2F)C1=O [Compound 3] | 30 |
| C=CCOc1cc(N2C(=O)C(=O)N(CCCC)C2=O)c(F)cc1Cl [Compound 16] | 0/0 |

tested on: Crabgrass (large) (Digitaria sanguinalis); experiment: Herbicidal pre-emergence test, Crabgrass (large); format: in vivo; settings: 1200 g/ha, scale of 0-100, 0 no activity, 100 total control, about two or four weeks after application
Protocol: as §1

| SMILES | Herbicidal Activity CRB (pre-emergence) |
| --- | --- |
| CN1C(=O)C(=O)N(c2cc(OC3CCCC3)c(Cl)cc2F)C1=O [Compound 3] | 0/0 |
| C=CCOc1cc(N2C(=O)C(=O)N(CCCC)C2=O)c(F)cc1Cl [Compound 16] | 0/0 |

tested on: Crabgrass (large) (Digitaria sanguinalis); experiment: Herbicidal post-emergence test, Crabgrass (large); format: in vivo; settings: 1200 g/ha, scale of 0-100, 0 no activity, 100 total control, about two or four weeks after application
Protocol: as §1

| SMILES | Herbicidal Activity CRB (post-emergence) |
| --- | --- |
| CN1C(=O)C(=O)N(c2cc(OC3CCCC3)c(Cl)cc2F)C1=O [Compound 3] | 0/0 |
| C=CCOc1cc(N2C(=O)C(=O)N(CCCC)C2=O)c(F)cc1Cl [Compound 16] | 0/0 |

tested on: Foxtail, (green) (Setaria viridis); experiment: Herbicidal pre-emergence test, Foxtail (green); format: in vivo; settings: 1200 g/ha, scale of 0-100, 0 no activity, 100 total control, about two or four weeks after application
Protocol: as §1

| SMILES | Herbicidal Activity FOX (pre-emergence) |
| --- | --- |
| CN1C(=O)C(=O)N(c2cc(OC3CCCC3)c(Cl)cc2F)C1=O [Compound 3] | 0 |
| C=CCOc1cc(N2C(=O)C(=O)N(CCCC)C2=O)c(F)cc1Cl [Compound 16] | 0 |

tested on: Foxtail, (green) (Setaria viridis); experiment: Herbicidal post-emergence test, Foxtail (green); format: in vivo; settings: 1200 g/ha, scale of 0-100, 0 no activity, 100 total control, about two or four weeks after application
Protocol: as §1

| SMILES | Herbicidal Activity FOX (post-emergence) |
| --- | --- |
| CN1C(=O)C(=O)N(c2cc(OC3CCCC3)c(Cl)cc2F)C1=O [Compound 3] | 60 |
| C=CCOc1cc(N2C(=O)C(=O)N(CCCC)C2=O)c(F)cc1Cl [Compound 16] | 60 |

tested on: Nutsedge, (yellow) (Cyperus esculentus); experiment: Herbicidal pre-emergence test, Nutsedge (yellow); format: in vivo; settings: 1200 g/ha, scale of 0-100, 0 no activity, 100 total control, about two or four weeks after application
Protocol: as §1

| SMILES | Herbicidal Activity NUT (pre-emergence) |
| --- | --- |
| CN1C(=O)C(=O)N(c2cc(OC3CCCC3)c(Cl)cc2F)C1=O [Compound 3] | 0/0 |
| C=CCOc1cc(N2C(=O)C(=O)N(CCCC)C2=O)c(F)cc1Cl [Compound 16] | 0/0 |

tested on: Nutsedge, (yellow) (Cyperus esculentus); experiment: Herbicidal post-emergence test, Nutsedge (yellow); format: in vivo; settings: 1200 g/ha, scale of 0-100, 0 no activity, 100 total control, about two or four weeks after application
Protocol: as §1

| SMILES | Herbicidal Activity NUT (post-emergence) |
| --- | --- |
| CN1C(=O)C(=O)N(c2cc(OC3CCCC3)c(Cl)cc2F)C1=O [Compound 3] | 0/0 |
| C=CCOc1cc(N2C(=O)C(=O)N(CCCC)C2=O)c(F)cc1Cl [Compound 16] | 0/0 |

tested on: Perennial Ryegrass (Lolium perenne); experiment: Herbicidal pre-emergence test, Perennial Ryegrass; format: in vivo; settings: 1200 g/ha, scale of 0-100, 0 no activity, 100 total control, about two or four weeks after application
Protocol: as §1

| SMILES | Herbicidal Activity RYE (pre-emergence) |
| --- | --- |
| CN1C(=O)C(=O)N(c2cc(OC3CCCC3)c(Cl)cc2F)C1=O [Compound 3] | 0/0 |
| C=CCOc1cc(N2C(=O)C(=O)N(CCCC)C2=O)c(F)cc1Cl [Compound 16] | 0/0 |

tested on: Perennial Ryegrass (Lolium perenne); experiment: Herbicidal post-emergence test, Perennial Ryegrass; format: in vivo; settings: 1200 g/ha, scale of 0-100, 0 no activity, 100 total control, about two or four weeks after application
Protocol: as §1

| SMILES | Herbicidal Activity RYE (post-emergence) |
| --- | --- |
| CN1C(=O)C(=O)N(c2cc(OC3CCCC3)c(Cl)cc2F)C1=O [Compound 3] | 0/0 |
| C=CCOc1cc(N2C(=O)C(=O)N(CCCC)C2=O)c(F)cc1Cl [Compound 16] | 0/0 |
